Results on one compound are retold here after publication PMC5824344 (ACS Chemical Biology, 2017).

Each structure is given as a SMILES string. “Also recorded” adds a separate entry of the source. Read-outs that look alike come from different tables or passages of the source.

Experiment [1] concerns HCV (JFH-1) in Huh7.5 cells. The experiment is described as follows: HCV antiviral assay in Huh7.5 cells (infectious titer by TCID50 assay). The experiment is classed as cell-based, hepatitis C virus. The conditions noted are these: MOI 2, 96 h, titration of 4 or 50 µm of 3. The procedure:
Supplemental Figure 3: Antiviral activity of 4 in human hepatoma Huh7.5 cell line.
(A) Huh7.5 cells were infected with DENV (serotype 2, strain 16681, multiplicity of infection = 0.1) and treated with a titration of ToP-DNJ 4 or 50 µm of tocopherol 3 for 48 h. Infectious virus titer was measured by plaque assay on LLC-MK2 cells. Counts were normalized to 100% for untreated samples.
DENV eﬀect at the concentrations tested. (B) Huh7.5 cells were infected with HCV (JFH-1, multiplicity of infection = 2) and treated with a titration of ToP-DNJ 4 or 50 µm tocopherol 3 for 96 h. Infectious virus titer was measured by TCID50 assay on […]
tested. In both panels, each data point represent the mean of triplicates, with error bars showing standard error of the mean (GraphPad Prism). […]
Huh7.5 cells were seeded in a 96-well plate at a density of 5× 10^3 cells/well in 100 µL growth media. […] The supernatant was harvested, and infectious viral titre assessed immediately in the TCID50 assay.
Huh7.5 cells were seeded in a 96-well plate at a density of 2× 10^4 cells/well in 100 µL of growth media and incubated for 18 h. The supernatants to be evaluated were diluted 1:10 in growth media, and 7 serial half-log10 dilutions were subsequently prepared in the same media. […]
each well was scored as either positive (≥ 5 stained cells) or negative. TCID50 values were calculated according to the method of Reed and Muench.8 […]

Another experiment has as its target T1, rat liver ER GluII (Rattus norvegicus, UniProt A0A8I6GFL3).
T1 construct: Rat liver ER, II; from tissue; host or cells: liver of male Wistar rats
The experiment can be described thus: ER α-glucosidase II inhibition with native-like fluorescently labelled glycan substrate (HPLC). The experiment is classed as biochemical. Here is the method: % Inhibition (C) Glc1→ Glc0
Supplemental Figure 1: In vitro inhibition of GluII by 4. Enzyme activity assays were carried out using rat liver ER GluII with either α-p-nitrophenylglucoside ( α-PNPG, A) or ﬂuorescently labelled glycan ( B and C) as substrate. The curves show the relationship between ToP-DNJ 4 concentration and inhibition of the enzymatic activity. The iminosugar inhibits the enzymatic catalysis of the reactions indepen-dent of substrate, but with diﬀering IC 50 values: 9.0 µm for α-PNPG; 14 µm for Glc2Man7GlcNAc2; 56 µm for Glc1Man7GlcNAc2. […]
4 Enzyme Inhibition Assays
All rat enzymes were isolated from 18-week-old, male Wistar rats, while human lysosomal α-glucosidase was obtained in commercially available form from Sanoﬁ Genzyme. Inhibition of isolated glucosidases was evaluated as described previously. 3 Brieﬂy, maltase, isomaltase, sucrase, and cellobiase were used as partially puriﬁed tissue extracts. Inhibition assays for each enzyme were performed with the respective natural substrate, and release of d-glucose measured by Glucose B-test (Wako Diagnostics). Assays of rat ER α-glucosidase II and human lysosomal α-glucosidase inhibition were conducted with α-p-nitrophenylglucoside as substrate; 400 mm Na2CO3 was added to quench these reactions, and the extent of hydrolysis was evaluated as absorbance at 400 nm by spectrophotometer. […]

T1 sequence (A0A8I6GFL3 33-944): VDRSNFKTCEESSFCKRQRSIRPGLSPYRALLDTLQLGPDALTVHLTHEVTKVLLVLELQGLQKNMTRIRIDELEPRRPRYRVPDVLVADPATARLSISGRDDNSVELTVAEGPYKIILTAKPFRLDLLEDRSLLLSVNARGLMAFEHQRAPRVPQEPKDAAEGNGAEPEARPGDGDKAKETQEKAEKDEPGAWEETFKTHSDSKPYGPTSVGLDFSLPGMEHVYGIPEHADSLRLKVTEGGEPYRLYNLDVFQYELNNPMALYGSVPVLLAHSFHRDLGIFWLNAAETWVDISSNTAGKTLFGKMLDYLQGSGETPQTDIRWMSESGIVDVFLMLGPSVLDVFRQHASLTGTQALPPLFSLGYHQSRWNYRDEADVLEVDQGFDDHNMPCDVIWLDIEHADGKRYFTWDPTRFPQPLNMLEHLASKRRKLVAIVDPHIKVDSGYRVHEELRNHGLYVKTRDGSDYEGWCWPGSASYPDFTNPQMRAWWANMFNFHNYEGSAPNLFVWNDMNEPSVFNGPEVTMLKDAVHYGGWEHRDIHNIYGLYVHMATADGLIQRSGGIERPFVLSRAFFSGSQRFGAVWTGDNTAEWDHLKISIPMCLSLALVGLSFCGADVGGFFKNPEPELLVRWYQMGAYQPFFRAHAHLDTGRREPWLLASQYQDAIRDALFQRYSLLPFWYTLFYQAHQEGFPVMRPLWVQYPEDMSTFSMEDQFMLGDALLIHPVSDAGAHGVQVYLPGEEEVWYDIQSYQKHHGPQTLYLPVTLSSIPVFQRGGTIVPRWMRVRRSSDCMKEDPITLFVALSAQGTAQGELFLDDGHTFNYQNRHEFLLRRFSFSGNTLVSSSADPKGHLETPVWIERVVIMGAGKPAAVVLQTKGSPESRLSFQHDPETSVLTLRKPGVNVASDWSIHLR
T1 sequence (A0A8I6ADW9 1-525 partner): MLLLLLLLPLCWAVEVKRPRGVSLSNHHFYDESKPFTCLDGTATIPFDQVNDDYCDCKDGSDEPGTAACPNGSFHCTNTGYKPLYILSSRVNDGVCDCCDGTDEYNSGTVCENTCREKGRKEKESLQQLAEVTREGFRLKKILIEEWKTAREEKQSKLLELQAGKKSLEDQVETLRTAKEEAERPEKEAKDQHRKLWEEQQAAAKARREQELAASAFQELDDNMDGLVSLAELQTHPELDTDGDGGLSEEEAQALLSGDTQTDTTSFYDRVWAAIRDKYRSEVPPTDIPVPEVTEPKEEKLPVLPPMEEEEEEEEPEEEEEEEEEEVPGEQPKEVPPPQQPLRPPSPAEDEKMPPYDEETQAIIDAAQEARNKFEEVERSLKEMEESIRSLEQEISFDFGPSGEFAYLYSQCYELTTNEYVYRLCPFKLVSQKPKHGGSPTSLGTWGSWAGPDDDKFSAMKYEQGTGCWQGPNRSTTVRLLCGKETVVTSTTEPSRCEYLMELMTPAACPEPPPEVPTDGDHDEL

As a reminder, the IC50 is the midpoint of a concentration-inhibition curve. In the case of `Cc1c(C)c2c(c(C)c1OCCCCCN1CC(O)C(O)C(O)C1CO)CCC(C)(CCCC(C)CCCC(C)CCCC(C)C)O2` (stereo not drawn) [Compound 4, 5′-tocopheroxypentyl-DNJ], the “anti-HCV effect (infectious virus titer)” value in experiment [1] was “neither an anti-DENV nor anti-HCV effect was observed; also recorded: Neither 4 nor 3 showed an anti-HCV eﬀect”. The IC50 on rat liver ER GluII (first GluII reaction, fluorescently labelled Glc2Man7GlcNAc1 substrate, read-out: IC50 for the conversion of diglucosylated to monoglucosylated glycan by GluII) amounted to 14 µM; at rat liver ER GluII (second GluII reaction, fluorescently labelled glycan substrate, read-out: IC50 for the conversion of monoglucosylated to nonglucosylated glycan by GluII) it was 56 µM.
